This note sets out measurements from US12604903B2 (priority 2019, dated 2026).

One may read the IC50 as the concentration that gives 50% inhibition.

In one experiment the test system is Fusarium oxysporum. It counts as cell-based.

Read-outs that look alike come from different tables or passages of the source. Residues, ends and D or L forms follow the SMILES beside them. Where only a bound is given, the exact number is not on record here.

For `CSCC[C@H](NC(=O)[C@H](CCCCN)NC(=O)[C@@H](N)CCCCN)C(=O)N1CCC[C@H]1C(=O)N[C@@H](CS)C(=O)N[C@@H](CCCCN)C(=O)N[C@@H](CCCNC(=N)N)C(=O)N[C@@H](CCCNC(=N)N)C(=O)N[C@@H](CCCNC(=N)N)C(=O)N[C@@H](CC(=O)O)C(=O)N[C@@H](CS)C(=O)N[C@@H](CCCCN)C(=O)N[C@H](C(=O)N[C@@H](Cc1ccc(O)cc1)C(=O)N1CCC[C@H]1C(=O)N[C@@H](CS)C(=O)N1CCC[C@H]1C(=O)N[C@@H](Cc1c[nH]cn1)C(=O)N1CCC[C@H]1C(=O)N[C@@H](CCCCN)C(=O)N[C@H](C(=O)N[C@@H](CCCNC(=N)N)C(=O)N[C@@H](CC(=O)O)C(=O)N[C@@H](CS)C(=O)N[C@H](C(=O)N[C@@H](CCCCN)C(=O)NCC(=O)N[C@@H](Cc1ccc(O)cc1)C(=O)N[C@@H](CS)C(=O)N[C@@H](CCCCN)C(=O)N[C@@H](CS)C(=O)N[C@H](C(=O)N[C@H](C(=O)N[C@@H](CCCNC(=N)N)C(=O)O)C(C)C)C(C)C)C(C)C)C(C)C)[C@@H](C)O` [NCR7-S] (H-KKMPCKRRRDCKTYPCPHPKVRDCVKGYCKCVVR-OH; N-terminus and C-terminus assumed), in the experiment on Botrytis cinerea, the “Botrytis cinerea MIC” value amounted to 6 µM and the 50% inhibitory concentration (IC50) is 3000 nM. For the same molecule, in the experiment with Fusarium graminearum, the “Fusarium graminearum MIC” value stood at 6 µM and the half-inhibitory concentration (IC50) was found to be 4 µM. Further, in the experiment on Phytophthora capsici, the concentration for half-maximal inhibition (IC50) was > 6 µM and the “Phytophthora capsici MIC” value is >6 µM. Moreover, in the experiment on Alternaria brassicicola, the “Alternaria brassicicola MIC” value stood at 6 µM and the IC50 turned out to be 4 µM.
Consider `CC[C@H](C)[C@H](NC(=O)[C@H](CS)NC(=O)[C@H](CCCCN)NC(=O)[C@@H]1CCCN1C(=O)[C@@H](NC(=O)[C@H](CCCCN)NC(=O)[C@@H]1CCCN1C(=O)[C@H](CCCCN)NC(=O)[C@H](CCCNC(=N)N)NC(=O)[C@H](CS)NC(=O)[C@H](C)NC(=O)[C@H](Cc1ccccc1)NC(=O)[C@H](CCCCN)NC(=O)[C@H](CCCCN)NC(=O)[C@H](CS)NC(=O)[C@H](CC(=O)O)NC(=O)[C@H](CCCCN)NC(=O)[C@H](CC(=O)O)NC(=O)[C@H](CO)NC(=O)[C@H](CCC(N)=O)NC(=O)[C@H](CS)NC(=O)[C@@H]1CCCN1C(=O)[C@H](CCCCN)NC(=O)[C@@H](N)[C@@H](C)O)C(C)C)C(=O)N[C@@H](CC(N)=O)C(=O)NCC(=O)N[C@@H](Cc1ccccc1)C(=O)N[C@@H](CS)C(=O)N[C@@H](CCCCN)C(=O)N[C@@H](CS)C(=O)N[C@H](C(=O)N[C@@H](CCCNC(=N)N)C(=O)O)C(C)C` [NCR13-S] (H-TKPCQSDKDCKKFACRKPKVPKCINGFCKCVR-OH), for which, in the experiment on Botrytis cinerea, the “Botrytis cinerea MIC” value is 3 µM and half-maximal inhibition (IC50) was put at 1500 nM. In the experiment on Fusarium graminearum, the “Fusarium graminearum MIC” value is 6 µM and half-maximal inhibition (IC50) was put at 4 µM. In addition, in the experiment on Phytophthora capsici, the IC50 was > 6 µM and the “Phytophthora capsici MIC” value was >6 µM. Also, in the experiment on Alternaria brassicicola, the “Alternaria brassicicola MIC” value worked out at 6 µM and half-maximal inhibition (IC50) required 4 µM.
Consider `CC(C)[C@H](NC(=O)[C@H](CS)NC(=O)[C@H](CCCCN)NC(=O)[C@H](CS)NC(=O)[C@H](Cc1ccccc1)NC(=O)CNC(=O)[C@H](CC(N)=O)NC(=O)[C@@H](NC(=O)[C@H](CS)NC(=O)[C@H](CC(N)=O)NC(=O)[C@@H]1CCCN1C(=O)[C@@H](NC(=O)[C@H](CCCCN)NC(=O)[C@@H]1CCCN1C(=O)[C@@H](NC(=O)[C@@H]1CCCN1C(=O)[C@H](CS)NC(=O)[C@H](CCCNC(=N)N)NC(=O)[C@H](Cc1ccc(O)cc1)NC(=O)[C@@H](NC(=O)[C@H](CCCCN)NC(=O)[C@H](CS)NC(=O)[C@H](Cc1c[nH]cn1)NC(=O)[C@H](CCCCN)NC(=O)[C@H](CCCNC(=N)N)NC(=O)[C@H](CO)NC(=O)[C@H](CCCCN)NC(=O)[C@H](CS)NC(=O)[C@@H]1CCCN1C(=O)[C@H](CCC(N)=O)NC(=O)[C@H](CCCCN)NC(=O)[C@@H](N)[C@@H](C)O)[C@@H](C)O)[C@@H](C)O)C(C)C)C(C)C)C(=O)N[C@@H](CCCNC(=N)N)C(=O)O` [NCR15-S] (H-TKQPCKSRKHCKTYRCPTPKVPNCVNGFCKCVR-OH; N-terminus and C-terminus assumed), for which, in the experiment on Botrytis cinerea, the “Botrytis cinerea MIC” value is 6 µM and the half-inhibitory concentration (IC50) is 3000 nM. Moreover, in the experiment on Fusarium graminearum, the “Fusarium graminearum MIC” value amounted to 6 µM and the IC50 worked out at 4 µM. Further, in the experiment with Phytophthora capsici, the IC50 is > 6 µM and the “Phytophthora capsici MIC” value was >6 µM. Moreover, in the experiment on Alternaria brassicicola, the “Alternaria brassicicola MIC” value stood at 6 µM and it took 3 µM to reach half-maximal inhibition (IC50).
For “TKPCQSDKDCKKFACRKPKVPKCINGFCKCVR (listed as Cicer arietinum) [NCR13-P]”, in the experiment with Botrytis cinerea, the “Botrytis cinerea MIC” value came to 3 µM. Also, the 50% inhibitory concentration (IC50) in the experiment on Botrytis cinerea (read-out: Botrytis cinerea IC50) was 1000 nM; with Fusarium graminearum (read-out: Fusarium graminearum IC50) it was 2 µM; with Fusarium oxysporum, 1000 nM; with Phytophthora capsici (read-out: Phytophthora capsici IC50), > 6 µM; in the experiment on Alternaria brassicicola (read-out: Alternaria brassicicola IC50) it was 2 µM. Besides, in the experiment with Fusarium graminearum, the “Fusarium graminearum MIC” value came out at 3 µM. Further, in the experiment on Fusarium oxysporum, the “Fusarium oxysporum MIC” value fell in the range of 2 to 3 µM. For the same molecule, the “Phytophthora capsici MIC” value in the experiment on Phytophthora capsici is >6 µM. Besides, in the experiment with Phytophthora capsici, the “growth inhibition of P. capsici (in words)” value is “inactive”. Besides, in the experiment with Alternaria brassicicola, the “Alternaria brassicicola MIC” value worked out at 4 µM.

B1: TKPCQSDKDCKKFACRKPKVPKCINGFCKCVRAPKKVEPTKPCQSDKDCKKFACRKPKVPKCINGFCKCVR (protein)
chain: TKPCQSDKDCKKFACRKPKVPKCINGFCKCVRAPKKVEPTKPCQSDKDCKKFACRKPKVPKCINGFCKCVR
notes: two NCR13 monomers linked in tandem by the APKKVEP spacer peptide from MtDef5 defensin, 71 amino acids
As to B1, the “antifungal activity against B. cinerea (in words)” value with Botrytis cinerea is “significantly more active”. In the experiment on Botrytis cinerea (in vitro growth inhibition), the “Botrytis cinerea MIC” value came out at 1.5 µM. In addition, in the experiment on Botrytis cinerea (read-out: Botrytis cinerea IC50, in vitro growth inhibition), the IC50 turned out to be 750 nM. Further, in the experiment with Fusarium graminearum (in vitro growth inhibition), the “Fusarium graminearum MIC” value stood at 1.5 µM. Also, the IC50 with Fusarium graminearum (read-out: Fusarium graminearum IC50, in vitro growth inhibition) amounted to 1 µM. For the same molecule, in the experiment on Fusarium oxysporum, the “Fusarium oxysporum MIC” value is 0.3 µM, the IC50 turned out to be 100 nM and the “antifungal activity against F. oxysporum (in words)” value is “significantly more active”.
